According to publication PMC4957648 (Journal of medicinal chemistry, 2016):
pEC50, pIC50: −log10 of the molar value. ≈ marks a conversion by molar mass, not a printed value.

How the values were obtained:
thyroid hormone receptor = test: Thyroid hormone activity assay, agonist mode; format: cell-based; conditions: for pEC50: read-out: TR agonist EC50, GH3.TRE-Luc cells
[1] = Human liver microsomal stability; format: in vitro ADME; conditions: liver microsomes
Cif [2] = target: T1, Cif (Pseudomonas aeruginosa, UniProt A0A0H2ZD27); test: Fluorescent-based Cif inhibitory assay; format: biochemical
[3] = Solubility under Cif assay conditions; format: physicochemical
Human sEH = target: T2, Human sEH (Homo sapiens, UniProt P34913); test: biochemical
T2 sequence (P34913 1-555): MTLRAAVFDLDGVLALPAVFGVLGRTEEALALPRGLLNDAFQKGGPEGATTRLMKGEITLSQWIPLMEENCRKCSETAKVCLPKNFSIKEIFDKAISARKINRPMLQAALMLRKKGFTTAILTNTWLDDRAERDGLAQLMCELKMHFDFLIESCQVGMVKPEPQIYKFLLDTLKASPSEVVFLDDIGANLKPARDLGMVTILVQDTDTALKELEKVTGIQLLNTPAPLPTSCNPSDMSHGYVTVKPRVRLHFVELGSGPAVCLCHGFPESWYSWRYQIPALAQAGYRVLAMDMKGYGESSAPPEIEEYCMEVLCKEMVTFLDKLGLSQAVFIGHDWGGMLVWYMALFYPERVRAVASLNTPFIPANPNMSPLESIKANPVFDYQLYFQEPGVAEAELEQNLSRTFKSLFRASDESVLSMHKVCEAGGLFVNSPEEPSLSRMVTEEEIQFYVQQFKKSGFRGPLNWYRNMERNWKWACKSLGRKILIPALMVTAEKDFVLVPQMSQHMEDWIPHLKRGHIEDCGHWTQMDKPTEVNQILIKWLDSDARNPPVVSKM

Cif [4] = target: T1, Cif; test: Surface plasmon resonance binding to immobilized Cif
GH3.TRE-Luc cells = test: Cytotoxicity in GH3.TRE-Luc cells; format: cell-based; conditions: concentrations up to 10 μM
[5] = system: polarized monolayers of airway epithelial cells; test: Cytotoxicity in polarized airway epithelial monolayers; format: cell-based; conditions: concentrations up to 10 μM
CFTR = conditions: from purified Cif protein and P. aeruginosa PA14; ref 5b; cited from earlier work

T1 sequence (A0A0H2ZD27 25-319 limits assumed): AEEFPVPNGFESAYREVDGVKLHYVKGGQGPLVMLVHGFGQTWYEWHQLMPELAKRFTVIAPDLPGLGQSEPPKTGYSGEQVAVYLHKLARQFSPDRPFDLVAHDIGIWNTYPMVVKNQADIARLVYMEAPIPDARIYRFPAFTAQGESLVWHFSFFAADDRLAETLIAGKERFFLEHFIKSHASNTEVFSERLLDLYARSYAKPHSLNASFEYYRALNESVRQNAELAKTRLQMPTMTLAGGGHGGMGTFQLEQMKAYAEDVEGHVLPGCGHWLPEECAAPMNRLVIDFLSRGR

Row | Compound | solubility [3] [µM] | increase in Cif inhibitory potency over lead compound (Cif [2]) [fold] | pEC50 (thyroid hormone receptor) | residence time (Cif [4]) [min] | also measured
1 | CCC(=O)Nc1cc(Br)c(Oc2ccc(O)c(C(C)C)c2)c(Br)c1 [Compound 1c] | – | – | – | – | thyroid hormone activity (compounds with different R1) (thyroid hormone receptor): lowest thyroid hormone activity
2 | CCC(=O)Nc1cc(Cl)c(Oc2ccc(O)c(-c3ccccc3)c2)c(Cl)c1 [Compound 8a] | – | – | – | – | half-life [1]: > 1 h
3 | CCOC(=O)CC(=O)Nc1cc(Cl)c(Oc2ccc(O)cc2)c(Cl)c1 [Compound 1k] | 50 to 100 (≈ 19.2 to 38.4 µg/mL) | – | – | – | Cif inhibitory activity (Cif [2]; at 50 μM): no inhibition
4 | CCC(=O)Nc1cc(Cl)c(Oc2ccc(O)c(-c3ccc(C(N)=O)cc3)c2)c(Cl)c1 [Compound 8c, 5′-(2,6-Dichloro-4-propionamidophenoxy)-2′-hydroxy-[1,1′-biphenyl]-4-carboxamide] | – | ~10 | < 5.00 | 0.0333 to 0.0667 | pIC50 (Human sEH): ~5.10; cytotoxicity (GH3.TRE-Luc cells): neither 8c nor 8h showed cytotoxicity; cytotoxicity [5]: neither 8c nor 8h showed cytotoxicity
5 | O=C(O)Cc1cc(I)c(Oc2ccc(O)c(I)c2)c(I)c1 [tiratricol] | – | – | – | – | protection of CFTR (CFTR): protects CFTR
6 | CCC(=O)Nc1cc(Cl)c(Oc2ccc(O)c(-c3ccc(NC(N)=O)cc3)c2)c(Cl)c1 [Compound 8h] | – | ~10 | < 5.00 | 0.0333 to 0.0667 | pIC50 (Human sEH): ~5.10; cytotoxicity (GH3.TRE-Luc cells): neither 8c nor 8h showed cytotoxicity; cytotoxicity [5]: neither 8c nor 8h showed cytotoxicity
7 | CCOC(=O)CC(=O)Nc1cc(Br)c(Oc2ccc(OC)c(C(C)C)c2)c(Br)c1 [Compound 1h] | 25 to 50 (≈ 13.2 to 26.5 µg/mL) | – | – | – | Cif inhibitory activity (Cif [2]; at 50 μM or 25 μM): failed to show inhibitory activity
8 | CCC(=O)Nc1cc(Cl)c(Oc2ccc(O)c(-c3ccc(C(C)=O)cc3)c2)c(Cl)c1 [Compound 8j] | – | ~10 | < 5.00 | 0.0333 to 0.0667 | –
9 | CCOC(=O)CC(=O)Nc1cc(Br)c(Oc2cccc(C(C)C)c2)c(Br)c1 [Compound 1g] | 50 to 100 (≈ 25 to 49.9 µg/mL) | – | – | – | Cif inhibitory activity (Cif [2]; at 50 μM or 25 μM): failed to show inhibitory activity
